SMILES strings stand for the structures. Where only a bound is given, the exact number is not on record here.

TNFα, sequence (P01375 77-233 limits assumed): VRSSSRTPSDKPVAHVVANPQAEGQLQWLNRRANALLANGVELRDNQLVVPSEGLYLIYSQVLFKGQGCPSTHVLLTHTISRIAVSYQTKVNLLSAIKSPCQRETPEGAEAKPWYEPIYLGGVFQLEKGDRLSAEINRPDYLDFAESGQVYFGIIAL

The assay concerns the target TNFα (Homo sapiens, UniProt P01375). Briefly: TNFα Induced HEK Blue Cellular Assay. It counts as cell-based. As to conditions: HEK Blue TNFα reporter cells, TNFα 100 pg/ml, 24 hrs at 37° C., secreted alkaline phosphatase (QUANTI-Blue) read at 620 nm; read-out: IC50 value. The essentials: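 IC50 fitted with a 4-parameter logistic model from % inhibition, normalised to DMSO controls with and without stimulation. Readout: QUANTI-Blue SEAP at 620 nm after 24 h, 37 °C exposure to TNFα (100 pg/ml final) and test compound at […]–0.5 nM final.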
Consider `[2H]C([2H])([2H])N1C(=O)c2cccc(OC(F)F)c2[C@H]2C[C@@H]1c1nc3ccc(-c4ccc(C(F)(F)P(C)(C)=O)cc4)cc3n12` [Example 95, (7R,14R)-1-(difluoromethoxy)-11-(4-((dimethylphosphoryl)difluoromethyl)phenyl)-6-(methyl-d3)-6,7-dihydro-7,14-methanobenzo[f]benzo[4,5]imidazo[1,2-a][1,4]diazocin-5(14H)-one], for which the concentration for half-maximal inhibition (IC50) was under 100 nM. As to `CP(C)(=O)Cc1ccc(-c2ccc3nc4n(c3c2)[C@@H]2C[C@H]4NC(=O)c3cccc(OC(F)F)c32)c(F)c1` [Example 96, (7R,14R)-1-(difluoromethoxy)-11-(4-((dimethylphosphoryl)methyl)-2-fluorophenyl)-6,7-dihydro-7,14-methanobenzo[f]benzo[4,5]imidazo[1,2-a][1,4]diazocin-5(14H)-one], the 50% inhibitory concentration (IC50) is 100 to 1000 nM. To `[2H]C([2H])([2H])N1C(=O)c2cccc(OC(F)F)c2[C@H]2C[C@@H]1c1nc3cc(F)c(-c4ccc(P(C)(C)=O)nc4C)cc3n12` [Example 97, (7R,14R)-1-(difluoromethoxy)-11-(6-(dimethylphosphoryl)-2-methylpyridin-3-yl)-10-fluoro-6-(methyl-d3)-6,7-dihydro-7,14-methanobenzo[f]benzo[4,5]imidazo[1,2-a][1,4]diazocin-5(14H)-one] belongs under 100 nM. The figure for `[2H]C([2H])([2H])N1C(=O)c2cccc(OC(F)F)c2[C@H]2C[C@@H]1c1nc3ccc(-c4ccc(NCP(C)(C)=O)nc4)cc3n12` [Example 98, (7R,14R)-1-(difluoromethoxy)-11-(6-(((dimethylphosphoryl)methyl)amino)pyridin-3-yl)-6-(methyl-d3)-6,7-dihydro-7,14-methanobenzo[f]benzo[4,5]imidazo[1,2-a][1,4]diazocin-5(14H)-one] is under 100 nM; for `[2H]C([2H])([2H])N1C(=O)c2cccc(OC(F)F)c2[C@H]2C[C@@H]1c1nc3ccc(-c4ccc(C(O)P(=O)(CC)CC)cc4)cc3n12` (stereo partly drawn) [Example 101, (7R,14R)-11-(4-((diethylphosphoryl)(hydroxy)methyl)phenyl)-1-(difluoromethoxy)-6-(methyl-d3)-6,7-dihydro-7,14-methanobenzo[f]benzo[4,5]imidazo[1,2-a][1,4]diazocin-5(14H)-one] it is under 100 nM; for `[2H]C([2H])([2H])N1C(=O)c2cccc(OC(F)F)c2[C@H]2C[C@@H]1c1nc3ccc(-c4ccc(P(C)(C)=O)cc4C(F)F)cc3n12` [Example 102, (7R,14R)-1-(difluoromethoxy)-11-(2-(difluoromethyl)-4-(dimethylphosphoryl)phenyl)-6-(methyl-d3)-6,7-dihydro-7,14-methanobenzo[f]benzo[4,5]imidazo[1,2-a][1,4]diazocin-5(14H)-one] it is under 100 nM. The figure for `[2H]C([2H])([2H])N1C(=O)c2cccc(OC(F)F)c2[C@H]2C[C@@H]1c1nc3ccc(-c4ccc(P(C)(C)=O)c(C(F)F)c4)cc3n12` [Example 103, (7R,14R)-1-(difluoromethoxy)-11-(3-(difluoromethyl)-4-(dimethylphosphoryl)phenyl)-6-(methyl-d3)-6,7-dihydro-7,14-methanobenzo[f]benzo[4,5]imidazo[1,2-a][1,4]diazocin-5(14H)-one] is under 100 nM.

Regarding `[2H]C([2H])([2H])N1C(=O)c2cccc(OC(F)F)c2[C@H]2C[C@@H]1c1nc3ccc(-c4ccc(P(C)(C)=O)cc4C(F)(F)F)cc3n12` [Example 104, (7R,14R)-1-(difluoromethoxy)-11-(4-(dimethylphosphoryl)-2-(trifluoromethyl)phenyl)-6-(methyl-d3)-6,7-dihydro-7,14-methanobenzo[f]benzo[4,5]imidazo[1,2-a][1,4]diazocin-5(14H)-one], the half-inhibitory concentration (IC50) lay in the range of 100 to 1000 nM.

Consider `[2H]C([2H])([2H])N1C(=O)c2cccc(OC(F)F)c2[C@H]2C[C@@H]1c1nc3ccc(-c4ccc(P(C)(C)=O)c(C)c4)cc3n12` [Example 105, (7R,14R)-1-(difluoromethoxy)-11-(4-(dimethylphosphoryl)-3-methylphenyl)-6-(methyl-d3)-6,7-dihydro-7,14-methanobenzo[f]benzo[4,5]imidazo[1,2-a][1,4]diazocin-5(14H)-one], for which the half-inhibitory concentration (IC50) is under 100 nM. To `[2H]C([2H])([2H])N1C(=O)c2cccc(OC(F)F)c2[C@H]2C[C@@H]1c1nc3ccc(-c4cc(C)c(P(C)(C)=O)c(F)c4)cc3n12` [Example 106, (7R,14R)-1-(difluoromethoxy)-11-(4-(dimethylphosphoryl)-3-fluoro-5-methylphenyl)-6-(methyl-d3)-6,7-dihydro-7,14-methanobenzo[f]benzo[4,5]imidazo[1,2-a][1,4]diazocin-5(14H)-one] belongs under 100 nM; to `[2H]C([2H])([2H])N1C(=O)c2cccc(OC(F)F)c2[C@H]2C[C@@H]1c1nc3ccc(-c4ccc(P(C)(C)=O)c(C)c4F)cc3n12` [Example 107, (7R,14R)-1-(difluoromethoxy)-11-(4-(dimethylphosphoryl)-2-fluoro-3-methylphenyl)-6-(methyl-d3)-6,7-dihydro-7,14-methanobenzo[f]benzo[4,5]imidazo[1,2-a][1,4]diazocin-5(14H)-one], under 100 nM. Take `[2H]C([2H])([2H])N1C(=O)c2cccc(OC(F)F)c2[C@H]2C[C@@H]1c1nc3ccc(-c4cc(F)c(CP(C)(C)=O)cc4C)cc3n12` [Example 108, (7R,14R)-1-(difluoromethoxy)-11-(4-((dimethylphosphoryl)methyl)-5-fluoro-2-methylphenyl)-6-(methyl-d3)-6,7-dihydro-7,14-methanobenzo[f]benzo[4,5]imidazo[1,2-a][1,4]diazocin-5(14H)-one]: the IC50 was under 100 nM. For `[2H]C([2H])([2H])N1C(=O)c2cccc(OC(F)F)c2[C@H]2C[C@@H]1c1nc3ccc(-c4ccc(P(C)(C)=O)c(F)n4)cc3n12` [Example 115, (7R,14R)-1-(difluoromethoxy)-11-(5-(dimethylphosphoryl)-6-fluoropyridin-2-yl)-6-(methyl-d3)-6,7-dihydro-7,14-methanobenzo[f]benzo[4,5]imidazo[1,2-a][1,4]diazocin-5(14H)-one], the IC50 was under 100 nM.

As to `[2H]C([2H])([2H])N1C(=O)c2cccc(OC(F)F)c2[C@H]2C[C@@H]1c1nc3ccc(-c4ccc(C(C)P(C)(C)=O)nc4)cc3n12` (stereo partly drawn) [Example 116, (7R,14R)-1-(difluoromethoxy)-11-(6-(1-(dimethylphosphoryl)ethyl)pyridin-3-yl)-6-(methyl-d3)-6,7-dihydro-7,14-methanobenzo[f]benzo[4,5]imidazo[1,2-a][1,4]diazocin-5(14H)-one], the IC50 was under 100 nM. To `[2H]C([2H])([2H])N1C(=O)c2cccc(OC(F)F)c2[C@H]2C[C@@H]1c1nc3ccc(-c4ccc(P(C)(C)=O)c(Cl)c4)cc3n12` [Example 117, (7R,14R)-11-(3-chloro-4-(dimethylphosphoryl)phenyl)-1-(difluoromethoxy)-6-(methyl-d3)-6,7-dihydro-7,14-methanobenzo[f]benzo[4,5]imidazo[1,2-a][1,4]diazocin-5(14H)-one] belongs under 100 nM; to `[2H]C([2H])([2H])N1C(=O)c2cccc(OC(F)F)c2[C@H]2C[C@@H]1c1nc3ccc(-c4ccc(C(C)(C)P(C)(C)=O)nc4)cc3n12` [Example 120, (7R,14R)-1-(difluoromethoxy)-11-(6-(2-(dimethylphosphoryl)propan-2-yl)pyridin-3-yl)-6-(methyl-d3)-6,7-dihydro-7,14-methanobenzo[f]benzo[4,5]imidazo[1,2-a][1,4]diazocin-5(14H)-one], under 100 nM. The figure for `[2H]C([2H])([2H])N1C(=O)c2cccc(OC(F)F)c2[C@H]2C[C@@H]1c1nc3ccc(-c4ccc(P(C)(C)=O)c(Cl)n4)cc3n12` [Example 121, (7R,14R)-11-(6-chloro-5-(dimethylphosphoryl)pyridin-2-yl)-1-(difluoromethoxy)-6-(methyl-d3)-6,7-dihydro-7,14-methanobenzo[f]benzo[4,5]imidazo[1,2-a][1,4]diazocin-5(14H)-one] is 100 to 1000 nM; for `[2H]C([2H])([2H])N1C(=O)c2cccc(OC(F)F)c2[C@H]2C[C@@H]1c1nc3ccc(-c4ccc(P(C)(C)=O)c(C(F)(F)F)c4)cc3n12` [Example 122, (7R,14R)-1-(difluoromethoxy)-11-(4-(dimethylphosphoryl)-3-(trifluoromethyl)phenyl)-6-(methyl-d3)-6,7-dihydro-7,14-methanobenzo[f]benzo[4,5]imidazo[1,2-a][1,4]diazocin-5(14H)-one] it is 100 to 1000 nM; for `[2H]C([2H])([2H])N1C(=O)c2cccc(OC(F)F)c2[C@H]2C[C@@H]1c1nc3ccc(-c4cc(F)c(P(C)(C)=O)c(C)n4)cc3n12` [Example 123, (7R,14R)-1-(difluoromethoxy)-11-(5-(dimethylphosphoryl)-4-fluoro-6-methylpyridin-2-yl)-6-(methyl-d3)-6,7-dihydro-7,14-methanobenzo[f]benzo[4,5]imidazo[1,2-a][1,4]diazocin-5(14H)-one] it is 100 to 1000 nM.

As to `[2H]C([2H])([2H])N1C(=O)c2cccc(OC(F)F)c2[C@H]2C[C@@H]1c1nc3ccc(-c4cnc(P(C)(C)=O)c(F)c4)cc3n12` [Example 124, (7R,14R)-1-(difluoromethoxy)-11-(6-(dimethylphosphoryl)-5-fluoropyridin-3-yl)-6-(methyl-d3)-6,7-dihydro-7,14-methanobenzo[f]benzo[4,5]imidazo[1,2-a][1,4]diazocin-5(14H)-one], the IC50 is under 100 nM. On to `[2H]C([2H])([2H])N1C(=O)c2cccc(OC(F)F)c2[C@H]2C[C@@H]1c1nc3ccc(-c4ccc(P(=O)(CC)CC)c(F)c4)cc3n12` [Example 125, (7R,14R)-11-(4-(diethylphosphoryl)-3-fluorophenyl)-1-(difluoromethoxy)-6-(methyl-d3)-6,7-dihydro-7,14-methanobenzo[f]benzo[4,5]imidazo[1,2-a][1,4]diazocin-5(14H)-one], for which the IC50 was under 100 nM.

For the origin of these results see patent US12384808B2, “Modulators of TNF-α activity” (Forward Therapeutics, Inc., priority 2022, dated 2025).
